# Results from ChEMBL document CHEMBL1154287, “Phenylaminopyrimidines as inhibitors of Janus kinases (JAKs)” (Bioorg Med Chem Lett, 2009).
# Assays:
# [1] = Oral bioavailability in Sprague-Dawley rat at 21 mg/kg; assay type: ADME, organism-based; details: in vivo
# [2] = Cmax in Sprague-Dawley rat at 21 mg/kg; assay type: ADME, organism-based; design: dose 21 mg/kg; details: in vivo
# [3] = Blood clearance in Sprague-Dawley rat at 21 mg/kg, iv; assay type: ADME, organism-based; design: dose 21 mg/kg, route intravenous
# [4] = Apparent permeability from basolateral to apical side in human Caco-2 cells; assay type: ADME, cell-based
# [5] = target: Tyrosine-protein kinase JAK2 (Homo sapiens, UniProt O60674)
# Chain of Tyrosine-protein kinase JAK2 (O60674 whole entry): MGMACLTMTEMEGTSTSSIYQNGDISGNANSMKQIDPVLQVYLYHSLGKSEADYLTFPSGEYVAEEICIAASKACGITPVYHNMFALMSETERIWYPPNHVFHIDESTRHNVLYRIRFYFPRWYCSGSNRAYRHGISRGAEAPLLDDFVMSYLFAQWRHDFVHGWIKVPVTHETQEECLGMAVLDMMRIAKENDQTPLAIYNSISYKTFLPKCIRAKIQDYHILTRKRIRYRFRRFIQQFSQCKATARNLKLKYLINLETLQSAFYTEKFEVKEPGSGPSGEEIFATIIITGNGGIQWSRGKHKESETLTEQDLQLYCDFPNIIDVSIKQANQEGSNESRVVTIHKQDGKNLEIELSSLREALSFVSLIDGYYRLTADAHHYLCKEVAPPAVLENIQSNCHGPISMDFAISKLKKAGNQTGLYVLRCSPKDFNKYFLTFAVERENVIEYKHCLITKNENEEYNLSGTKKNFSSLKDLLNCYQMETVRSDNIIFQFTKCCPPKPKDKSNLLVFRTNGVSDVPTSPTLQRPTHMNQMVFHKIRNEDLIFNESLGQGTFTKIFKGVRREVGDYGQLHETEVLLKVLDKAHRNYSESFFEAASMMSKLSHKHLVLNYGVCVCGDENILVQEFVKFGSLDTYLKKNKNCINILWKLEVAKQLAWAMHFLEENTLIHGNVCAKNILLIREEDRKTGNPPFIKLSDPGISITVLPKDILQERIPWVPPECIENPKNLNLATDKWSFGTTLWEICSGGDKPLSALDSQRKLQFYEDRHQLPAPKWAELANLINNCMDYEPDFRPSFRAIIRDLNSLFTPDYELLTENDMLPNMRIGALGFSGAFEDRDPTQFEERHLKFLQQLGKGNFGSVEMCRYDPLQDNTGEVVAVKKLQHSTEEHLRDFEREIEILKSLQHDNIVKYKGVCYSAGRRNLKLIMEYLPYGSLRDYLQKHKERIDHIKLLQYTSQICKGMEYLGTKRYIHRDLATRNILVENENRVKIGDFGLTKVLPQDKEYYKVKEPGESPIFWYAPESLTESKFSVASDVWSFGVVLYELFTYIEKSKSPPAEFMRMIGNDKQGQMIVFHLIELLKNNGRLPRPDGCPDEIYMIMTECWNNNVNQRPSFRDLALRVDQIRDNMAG
# Description: Inhibition of GST-tagged JAK2 kinase
# [6] = target: T1, Tyrosine-protein kinase JAK3 (Homo sapiens, UniProt P52333)
# T1 sequence (P52333 whole entry): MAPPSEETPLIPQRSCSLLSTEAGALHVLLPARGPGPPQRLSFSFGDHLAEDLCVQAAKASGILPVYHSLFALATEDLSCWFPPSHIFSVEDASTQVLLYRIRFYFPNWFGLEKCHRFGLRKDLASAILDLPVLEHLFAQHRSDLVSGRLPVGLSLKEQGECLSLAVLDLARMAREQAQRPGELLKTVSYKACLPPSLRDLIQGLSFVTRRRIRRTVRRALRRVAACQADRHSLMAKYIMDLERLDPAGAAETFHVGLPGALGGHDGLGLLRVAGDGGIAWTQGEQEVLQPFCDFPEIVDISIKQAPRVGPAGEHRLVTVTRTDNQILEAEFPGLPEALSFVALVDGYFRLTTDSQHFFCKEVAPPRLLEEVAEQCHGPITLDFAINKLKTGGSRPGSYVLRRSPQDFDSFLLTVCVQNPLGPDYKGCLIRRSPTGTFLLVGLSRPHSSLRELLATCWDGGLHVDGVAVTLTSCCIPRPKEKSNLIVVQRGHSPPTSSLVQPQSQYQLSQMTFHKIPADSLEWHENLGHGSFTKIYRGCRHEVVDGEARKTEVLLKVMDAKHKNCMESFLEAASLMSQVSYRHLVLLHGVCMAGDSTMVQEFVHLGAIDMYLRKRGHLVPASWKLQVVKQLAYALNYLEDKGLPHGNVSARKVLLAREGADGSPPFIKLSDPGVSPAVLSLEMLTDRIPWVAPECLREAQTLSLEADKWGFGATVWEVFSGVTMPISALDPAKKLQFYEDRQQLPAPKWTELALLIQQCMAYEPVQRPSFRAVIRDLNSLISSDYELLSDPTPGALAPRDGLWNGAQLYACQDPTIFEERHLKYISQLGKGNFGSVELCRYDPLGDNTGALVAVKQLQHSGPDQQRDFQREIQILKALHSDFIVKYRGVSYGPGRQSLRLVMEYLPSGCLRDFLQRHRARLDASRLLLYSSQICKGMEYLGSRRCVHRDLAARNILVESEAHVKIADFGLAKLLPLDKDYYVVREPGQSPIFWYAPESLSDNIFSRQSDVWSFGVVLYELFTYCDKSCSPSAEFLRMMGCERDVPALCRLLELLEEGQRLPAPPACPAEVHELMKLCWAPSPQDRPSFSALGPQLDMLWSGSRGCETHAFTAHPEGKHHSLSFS
# Description: Inhibition of GST-tagged JAK3 kinase
# BaF3 [7] = experiment: cells; details: Mus musculus, BaF3, 72 h
# Description: Antiproliferative activity against mouse BAF3 cells expressing TEL-JAK2 kinase after 72 hrs by alamar blue assay
# BaF3 [8] = experiment: cells; details: Mus musculus, BaF3, 72 h; remark: listed apart in the source
# Description: Antiproliferative activity against mouse BAF3 cells expressing TEL-JAK3 kinase after 72 hrs by alamar blue assay
# cells = details: Mus musculus, CTLL-2, 72 h
# Description: Antiproliferative activity against IL-2-stimulated mouse CTLL-2 cells expressing JAK1/JAK3 after 72 hrs by alamar blue assay
# in vitro [9] = details: human, Caco-2
# Description: Apparent permeability from apical to basolateral side in human Caco-2 cells
# in vitro [10] = details: human, Caco-2; remark: listed apart in the source
# Description: Ratio of permeability from apical to basolateral side over basolateral to apical side in human Caco-2 cells
structure (smiles),measurement,setting,value
CS(=O)(=O)Nc1ccc(-c2ccnc(Nc3ccc(CN4CCS(=O)(=O)CC4)cc3)n2)cc1,bioavailability,[1],5.4%
same,Cmax,[2],270 nM
same,clearance,[3],36.6 mL/min/kg
same,Papp B→A,[4],56.4 ×10⁻⁶ cm/s
same,IC50,[5],2 nM
same,IC50,[6],587 nM
same,IC50,BaF3 [7],802 nM
same,IC50,BaF3 [8],3560 nM
same,IC50,cells,2220 nM
same,Papp A→B,in vitro [9],4.6 ×10⁻⁶ cm/s
same,efflux ratio,in vitro [10],12.3
